This note sets out measurements from publication PMC12631912, “A Multifunctional Molecular Probe for Multimodal Imaging‐Guided Potent Photothermal/Photodynamic Therapy of Endometriosis” (Advanced Science, 2025).

The subject of data set [1] is EESCs. Briefly: Cellular internalization of probes by flow cytometry. The conditions noted are these: EESC, in Figure 3g. It is filed as cell-based, human. The procedure: (§1) Furthermore, the cellular internalization of the probes was quantitatively evaluated using flow cytometry. […] After these incubation periods, the cells were washed three times with PBS, trypsinized, and collected. The harvested cells were then analyzed using an Attune NxT flow cytometer (Invitrogen, USA). The data obtained was analyzed utilizing NovoExpress 1.4.0 software (Agilent, USA).

Data set [2] relates to Ishikawa cells. Described as above. The conditions noted are these: in Figure 3g. It is filed as cell-based. As for the experimental part: as §1
For data set [3], the system named is EMS lesions. Briefly: In vivo infrared thermography of EMS lesions. Also on record: species or system BALB/c nude mice. Conditions: EMS nude mice, ICG 500 µg kg^−1 i.v., 1 h post-injection, 808 nm laser 1.0 W cm^−2, within 5 min; n = 3. The procedure:
(§2) As shown in previous references,^[ [19] ^] to establish a xenograft EMS model in nude mice, female BALB/c nude mice (5‐6 weeks, 18‐20 g) served as recipients, and female Sprague–Dawley rats (7‐9 weeks, 200–240 g) with regular 4–5 days estrous cycles were selected as donors after a week of acclimatization. Prior to surgery, nude mice received daily intramuscular β‐estradiol 17‐pentanoate (0.25 µg g^−1) for 3 days. The EMS model was induced by subcutaneous transplantation of ≈40 mg of rat uterine fragments into nude mice. The uterine horns from euthanized donors were sterilely collected, bisected, minced, and suspended in DMEM/F12 medium before injection. Nude mice then received β‐estradiol 17‐pentanoate (0.25 µg g^−1) injections every 2 days, and endometriotic lesions reaching 100 mm^3 were used for subsequent experiments.
To investigate the photothermal heating efficacy at lesion sites in EMS mice, in vivo infrared thermography studies were conducted. […] Thermal responses were monitored in real‐time using a digital thermographic camera (Fluke Ti27, IR Fusion Technology, USA). Infrared thermal images were captured, and temperature measurements were recorded. The temporal correlation between temperature elevation and laser irradiation duration was analyzed using AnalyzIR software (4.0.0).

For data set [4], the system named is endometriotic lesions. Briefly: In vivo anti-EMS efficacy, xenograft model. Also on record: species or system BALB/c nude mice. The conditions noted are these: xenograft EMS nude mice. As for the experimental part:
as §2
Mice were injected with different formulations via the tail vein every 3 days until euthanasia, with an ICG dose of 3 mg kg^−1. For groups receiving NIR laser irradiation, the procedure was conducted 1 h post‐administration with a power of 1.0 W cm^− ^2 for 10 min. Mouse body weights were recorded every 3 days, and xenograft growth was monitored using a vernier caliper. EMS rats (n = 4) underwent the same treatment strategy after 28 days of autotransplantation, with body weight changes monitored every 3 days. After 18 days of treatment, rats were euthanized for autograft size measurement. Nude mice were euthanized after 18 days for graft extraction, followed by H&E staining and TUNEL assay. Briefly, sections were deparaffinized, hydrated, stained with H&E, and visualized under an optical microscope.
TUNEL staining was performed following the instructions provided in the FITC TUNEL Cell Apoptosis Detection Kit (G1501, Servicebio, Wuhan). Paraffin sections were dewaxed, hydrated, repaired with proteinase K, and permeabilized with Triton X‐100. After incubating with buffer at room temperature for 10 min, a reaction solution containing TdT enzyme, dUTP, and buffer (1:5:50 ratio) was added and incubated at 37 °C for 1 h. Nuclei were counterstained with DAPI for 10 min, followed by three 5 min PBS washes (pH 7.4) on a decolorizing shaker. The slides were then blocked with an anti‐fluorescence quenching blocker (G1401, Sevier, Wuhan). The slides were visualized under CLSM with DAPI (blue light, excited at 330–380 nm, emitted at 420 nm) and FITC (green light, excited at 465–495 nm, emitted at 515–555 nm).

Data set [5] can be described thus: UV absorption and fluorescence emission spectra. The class given is physicochemical. Conditions: in PBS, cRGD-ILD C ICG = 10 µg mL^−1, ICG 5 µg/mL. As for the experimental part: The ^1H NMR spectra were conducted utilizing a Varian Unity 400 MHz Spectrometer ([…]) in a variety of deuterated solvents. ESI‐MS were obtained with a Thermo Scientific LTQ XL mass spectrometer (Thermo, USA). UV absorption spectra were measured by a Unico UV‐2000 UV–vis Spectrophotometer (Shanghai, China). Photoluminescence excitation and emission spectra were recorded using an FSP920‐combined Time Resolved and Steady State Fluorescence Spectrometer (Edinburgh, UK), equipped with a 450‐W xenon lamp. Both the UV and fluorescence spectrophotometers were scanned within the wavelength range of 650–850 nm.

In data set [6] the test system is EESCs. Briefly: CCK-8 cytotoxicity without laser irradiation. The class given is cell-based, human. The conditions noted are these: CCK-8, 24 h incubation, ICG concentration up to 300 µg mL^−1. The procedure:
(§3) After 24 h, the medium was replaced with fresh medium containing 10% CCK‐8 reagent and incubated for an additional 2 h. The absorbance at 450 nm was measured using a Synergy 2 multimode microplate reader (BioTek, USA), with the wells without cells serving as blanks. All experiments were performed in triplicate.

The test system of data set [7] is Ishikawa cells. The data set can be described thus: CCK-8 cytotoxicity without laser irradiation. The conditions noted are these: CCK-8, 24 h incubation, ICG concentration up to 300 µg mL^−1. The class given is cell-based. As for the experimental part: as §3
The nature of data set [8]: In vivo fluorescence imaging, off-target effects and clearance in healthy mice. Set-up: species or system BALB/c nude mice.
Setting [9] is: C ICG = 2.5 µg mL^−1, 1 h incubation.
The mark [10] stands for this setting: C ICG = 2.5 µg mL^−1, 4 h incubation.

For ICG‐lys‐DTPA@Gd [ILD], the “internalized probes by flow cytometry” value in data set [1] (setting [9]) is listed as 74.68%; in data set [1] (setting [10]) it was 94.41%; in data set [2] (setting [9]), 61.98%; in data set [2] (setting [10]), 93.22%. Besides, the “localized (maximum) temperature at the EMS lesion” value in data set [3] was 34.5 °C. Further, the “H&E histology of ectopic lesions, probe + laser” value in data set [4] (after 18 days of treatment) is given as “pronounced graft growth suppression”.
For “c(RGDyK)‐ICG‐lys‐DTPA@Gd (head to tail) [cRGD‐ILD, targeting theranostic probe integrating cRGD peptide, ICG fragment and DTPA@Gd complex]”, in data set [5] (λex = 755 nm), the fluorescence emission peak is given as 764 nm. This substance also returned an absorption peak in data set [5] of 755 nm. Further, in data set [6], the “cell viability without laser irradiation” value is given as “above 90%”. In addition, the “cell viability without laser irradiation” value in data set [7] is listed as “above 90%”. Besides, in data set [8] (healthy BALB/c nude mice, ICG 1000 µg kg^−1 i.v.), the “tissue distribution by serial in vivo fluorescence imaging” value is given as “no specific tissue distribution”. Besides, the “fluorescence signal as % of the 24 h level” value in data set [8] (healthy BALB/c nude mice, ICG 1000 µg kg^−1 i.v., within 7 days, n = 3) is reported as “≈ 14.75%”. In addition, the “ex vivo fluorescence of major organs” value in data set [8] (healthy nude mice, 10 days post-injection, heart, liver, spleen, lungs, kidneys) is “minimal residual fluorescence”. Further, in data set [4] (ICG 3 mg kg^−1 i.v. every 3 days, 808 nm 1.0 W cm^−2 10 min, 18 days, n = 5), the “therapeutic efficacy, probe + laser” value is recorded as “outperformed the ILD + laser combination”. Besides, in data set [4] (after 18 days of treatment), the “H&E histology of ectopic lesions, probe + laser” value is listed as “pronounced graft growth suppression” and the “TUNEL assay of lesions, probe + laser” value was “peak apoptotic activity”.
